Where a name gives a salt, the structure may show the parent alone.
How the values were obtained:
[1] = target: human JAK2 (a.a. 828-1132) (Homo sapiens (Human), UniProt O60674); assay: In vitro JAK kinase assay (HTRF, phosphorylation of biotinylated peptide); assay type: biochemical; conditions: for IC50: at Km ATP (30 μM ATP for Jak2)
Procedure: (§1) The compounds of the invention were tested for inhibitory activity of JAK targets according to the following in vitro assay described in Park et al., Analytical Biochemistry 1999, 269, 94-104. The catalytic domains of human JAK1 (a.a. 837-1142), JAK2 (a.a. 828-1132) and JAK3 (a.a. 781-1124) with an N-terminal His tag were expressed using baculovirus in insect cells and purified. The catalytic activity of JAK1, JAK2 or JAK3 was assayed by measuring the phosphorylation of a biotinylated peptide. The phosphorylated peptide was detected by homogenous time resolved fluorescence (HTRF). […] The ATP concentration in the reactions was 90 μM for Jak1, 30 μM for Jak2 and 3 μM for Jak3. Reactions were carried out at room temperature for 1 hr and then stopped with 20 μL 45 mM EDTA, 300 nM SA-APC, 6 nM Eu-Py20 in assay buffer (Perkin Elmer, Boston, Mass.). Binding to the Europium labeled antibody took place for 40 minutes and HTRF signal was measured on a Fusion plate reader (Perkin Elmer, Boston, Mass.).

[2] = target: human JAK1 (a.a. 837-1142) (Homo sapiens, UniProt P23458); assay: as above; assay type: biochemical; conditions: at Km ATP (90 μM ATP for Jak1)
Procedure: as §1

Sequence of human JAK2 (a.a. 828-1132) (O60674 828-1132): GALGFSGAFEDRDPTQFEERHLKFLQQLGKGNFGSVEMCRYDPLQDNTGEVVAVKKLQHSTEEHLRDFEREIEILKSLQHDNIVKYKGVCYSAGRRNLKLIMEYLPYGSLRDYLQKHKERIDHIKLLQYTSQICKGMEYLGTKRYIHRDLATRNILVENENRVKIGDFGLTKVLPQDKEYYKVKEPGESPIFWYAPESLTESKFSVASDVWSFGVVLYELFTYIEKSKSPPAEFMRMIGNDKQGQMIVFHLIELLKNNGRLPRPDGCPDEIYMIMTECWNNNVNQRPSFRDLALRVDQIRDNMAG

SMILES	JAK2 activity compared with the other form/enantiomer (in words) [1]	IC50 [2]	IC50 [1]
CCCCCC(CC#N)n1cc(-c2ncnc3[nH]ccc23)cn1 (single isomer, unassigned) [Example 1, first peak (free base), 3-[4-(7H-pyrrolo[2,3-d]pyrimidin-4-yl)-1H-pyrazol-1-yl]octanenitrile]	not as potent as the other enantiomer	–	–
CCCCCC(CC#N)n1cc(-c2ncnc3[nH]ccc23)cn1.O=P(O)(O)O (single isomer, unassigned) [Example 1, second peak (phosphate salt), 3-[4-(7H-pyrrolo[2,3-d]pyrimidin-4-yl)-1H-pyrazol-1-yl]octanenitrile phosphoric acid salt]	similarly active	–	–
CCCCC(CC#N)n1cc(-c2ncnc3[nH]ccc23)cn1 (single isomer, unassigned) [Example 2, second peak (free base), 3-[4-(7H-pyrrolo[2,3-d]pyrimidin-4-yl)-1H-pyrazol-1-yl]heptanenitrile]	–	0.57 nM	0.3 nM

The remaining lines, values ahead:

JAK2 activity compared with the other form/enantiomer (in words) [1]	IC50 [2]	IC50 [1]	SMILES
–	1.8 nM	1.4 nM	CCCCC(CC#N)n1cc(-c2ncnc3[nH]ccc23)cn1 (single isomer, unassigned) [Example 2, first peak (free base), 3-[4-(7H-pyrrolo[2,3-d]pyrimidin-4-yl)-1H-pyrazol-1-yl]heptanenitrile]
–	2 nM	0.65 nM	CCCCC(CC#N)n1cc(-c2ncnc3[nH]ccc23)cn1 (single isomer, unassigned) [Example 2, second peak (phosphate salt), 3-[4-(7H-pyrrolo[2,3-d]pyrimidin-4-yl)-1H-pyrazol-1-yl]heptanenitrile phosphoric acid salt]
